How the values were obtained:
Experiment in all cases: Competitive isoTOP-ABPP, cell lysates
Format in all cases: binding
Conditions in all cases: 500 μm, in-vitro_ramos_231
GNB2L1 C182 (P63244) = GNB2L1 C182 (P63244) (Homo sapiens, UniProt P63244)
Description: (§1) TEV digests were pressure loaded onto a 250 μm (inner diameter) fused silica capillary column packed with C18 resin (Aqua 5 μm, Phenomenex). The samples were analyzed by multidimensional liquid chromatography tandem mass spectrometry (MudPIT), using an LTQ-Velos Orbitrap mass spectrometer (Thermo Scientific) coupled to an Agilent 1200-series quaternary pump. The peptides were eluted onto a biphasic column with a 5 μm tip (100 μm fused silica, packed with C18 (10 cm) and bulk strong cation exchange resin (3 cm, SCX, Phenomenex,)) in a 5-step MudPIT experiment, using 0%, 30%, 60%, 90%, and 100% salt bumps of 500 mM aqueous ammonium acetate and using a gradient of 5-100% buffer B in buffer A (buffer A: 95% water, 5% acetonitrile, 0.1% formic acid; buffer B: 5% water, 95% acetonitrile, 0.1% formic acid) as has been described in Weerapana et al. Nat Protoc 2:1414-1425 (2007). Data was collected in data-dependent acquisition mode with dynamic exclusion enabled (20 s, repeat of 2). One full MS (MS1) scan (400-1800 m/z) was followed by 30 MS2 scans (ITMS) of the nth most abundant ions.
(§2) The ratios of heavy/light for each unique peptide (DMSO/compound treated; isoTOP-ABPP ratios, R values) were quantified with in-house CIMAGE software, using default parameters (3 ms s per peak and signal to noise threshold 2.5). Site-specific engagement of electrophilic fragments was assessed by blockade of IA-alkyne probe labeling. […] Ratios for unique peptide entries were calculated for each experiment; overlapping peptides with the same modified cysteine (e.g. different charge states, MudPIT chromatographic steps or tryptic termini) were grouped together and the median ratio was reported as the final ratio (R). The peptide ratios reported by CIMAGE were further filtered to ensure the removal or correction of low quality ratios in each individual dataset. The quality filters applied were the following: removal of half tryptic peptides; for ratios with high standard deviations from the median (90% of the median or above) the lowest ratio was taken instead of the median; removal of peptides with R=20 and only a single ms2 event triggered during the elution of the parent ion; manual annotation of all the peptides with ratios of 20, removing any peptides with low-quality elution profiles that remained after the previous curation steps. Proteome reactivity values for individual fragments were computed as the percentage of the total quantified cysteine-containing peptides with R values≥4 (defined as liganded cysteines) for each replicate experiment and the final proteome reactivity value was calculated as the mean for all replicate experiments for each fragment from both MDA-MB-231 and Ramos cellular proteomes.
(§3) Biological replicates of the same compound and cell-line were averaged if the standard deviation was below 60% of the mean; otherwise the lowest value of the ratio set was taken.

GSTP1 C48 (P09211) = GSTP1 C48 (P09211) (Homo sapiens, UniProt P09211)
Description: as §1, §2, §3

IDH1 C269 (O75874) = IDH1 C269 (O75874) (Homo sapiens, UniProt O75874)
Description: as §1, §2, §3

IDH2 C308 (P48735) = biological target: T1, IDH2 C308 (P48735) (Homo sapiens, UniProt P48735)
T1 sequence (P48735 40-452): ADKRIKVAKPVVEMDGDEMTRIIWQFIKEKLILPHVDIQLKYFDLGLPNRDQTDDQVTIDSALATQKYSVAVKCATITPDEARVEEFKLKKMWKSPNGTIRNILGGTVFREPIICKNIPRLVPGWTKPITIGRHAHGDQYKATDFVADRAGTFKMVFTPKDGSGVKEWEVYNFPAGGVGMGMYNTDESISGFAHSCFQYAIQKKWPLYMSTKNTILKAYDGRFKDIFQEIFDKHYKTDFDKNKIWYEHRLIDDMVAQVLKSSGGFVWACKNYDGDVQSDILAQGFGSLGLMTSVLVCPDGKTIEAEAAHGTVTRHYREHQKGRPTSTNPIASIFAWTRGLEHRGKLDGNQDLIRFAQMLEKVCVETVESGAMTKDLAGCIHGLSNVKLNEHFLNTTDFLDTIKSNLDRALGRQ
Description: as §1, §2, §3

PRMT1 C109 (Q99873) = PRMT1 C109 (Q99873) (Homo sapiens, UniProt Q99873)
Description: as §1, §2, §3

XPO1 C34 (O14980) = XPO1 C34 (O14980) (Homo sapiens, UniProt O14980)
Description: as §1, §2, §3

ACAT1 C119 (P24752) = biological target: T2, ACAT1 C119 (P24752) (Homo sapiens, UniProt P24752)
T2 sequence (P24752 34-427): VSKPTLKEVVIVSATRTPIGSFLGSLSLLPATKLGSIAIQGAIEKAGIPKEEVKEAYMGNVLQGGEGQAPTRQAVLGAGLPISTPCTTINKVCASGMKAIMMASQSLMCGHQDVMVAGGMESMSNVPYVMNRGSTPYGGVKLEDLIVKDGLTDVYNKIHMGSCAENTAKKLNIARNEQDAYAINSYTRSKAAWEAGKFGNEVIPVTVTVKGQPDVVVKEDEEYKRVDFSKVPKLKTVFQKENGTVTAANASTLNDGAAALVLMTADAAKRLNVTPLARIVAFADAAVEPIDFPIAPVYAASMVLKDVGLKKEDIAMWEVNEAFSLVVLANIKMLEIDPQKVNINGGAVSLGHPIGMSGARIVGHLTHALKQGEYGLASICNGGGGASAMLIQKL

ACAT1 C196 (P24752) = biological target: T3, ACAT1 C196 (P24752) (Homo sapiens, UniProt P24752)
T3 sequence (P24752 34-427): T2 sequence (P24752 34-427)

ACAT1 C413 (P24752) = biological target: T4, ACAT1 C413 (P24752) (Homo sapiens, UniProt P24752)
T4 sequence (P24752 34-427): T2 sequence (P24752 34-427)

Sequence of PRMT1 C109 (Q99873) (Q99873 whole entry): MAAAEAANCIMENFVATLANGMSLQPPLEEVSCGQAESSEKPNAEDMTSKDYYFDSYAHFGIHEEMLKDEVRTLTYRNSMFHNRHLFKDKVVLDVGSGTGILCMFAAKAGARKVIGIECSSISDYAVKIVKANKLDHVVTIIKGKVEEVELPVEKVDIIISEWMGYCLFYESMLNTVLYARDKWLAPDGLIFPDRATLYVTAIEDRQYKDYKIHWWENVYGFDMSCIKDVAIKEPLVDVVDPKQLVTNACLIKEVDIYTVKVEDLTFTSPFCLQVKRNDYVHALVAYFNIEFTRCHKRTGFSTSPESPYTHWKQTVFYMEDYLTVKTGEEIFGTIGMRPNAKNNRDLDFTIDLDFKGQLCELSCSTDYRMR
Sequence of IDH1 C269 (O75874) (O75874 whole entry): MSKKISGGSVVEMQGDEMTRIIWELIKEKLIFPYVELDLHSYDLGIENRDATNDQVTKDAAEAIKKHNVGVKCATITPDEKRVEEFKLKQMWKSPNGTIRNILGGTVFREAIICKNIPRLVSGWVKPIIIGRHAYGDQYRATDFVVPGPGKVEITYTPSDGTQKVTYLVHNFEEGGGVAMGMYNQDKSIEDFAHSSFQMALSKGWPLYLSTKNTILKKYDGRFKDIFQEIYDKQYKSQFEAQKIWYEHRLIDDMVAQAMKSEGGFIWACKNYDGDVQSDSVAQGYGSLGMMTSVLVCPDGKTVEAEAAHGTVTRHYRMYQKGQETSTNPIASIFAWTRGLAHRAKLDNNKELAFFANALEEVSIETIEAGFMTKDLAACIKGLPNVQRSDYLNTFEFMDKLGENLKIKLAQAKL
Sequence of XPO1 C34 (O14980) (O14980 whole entry): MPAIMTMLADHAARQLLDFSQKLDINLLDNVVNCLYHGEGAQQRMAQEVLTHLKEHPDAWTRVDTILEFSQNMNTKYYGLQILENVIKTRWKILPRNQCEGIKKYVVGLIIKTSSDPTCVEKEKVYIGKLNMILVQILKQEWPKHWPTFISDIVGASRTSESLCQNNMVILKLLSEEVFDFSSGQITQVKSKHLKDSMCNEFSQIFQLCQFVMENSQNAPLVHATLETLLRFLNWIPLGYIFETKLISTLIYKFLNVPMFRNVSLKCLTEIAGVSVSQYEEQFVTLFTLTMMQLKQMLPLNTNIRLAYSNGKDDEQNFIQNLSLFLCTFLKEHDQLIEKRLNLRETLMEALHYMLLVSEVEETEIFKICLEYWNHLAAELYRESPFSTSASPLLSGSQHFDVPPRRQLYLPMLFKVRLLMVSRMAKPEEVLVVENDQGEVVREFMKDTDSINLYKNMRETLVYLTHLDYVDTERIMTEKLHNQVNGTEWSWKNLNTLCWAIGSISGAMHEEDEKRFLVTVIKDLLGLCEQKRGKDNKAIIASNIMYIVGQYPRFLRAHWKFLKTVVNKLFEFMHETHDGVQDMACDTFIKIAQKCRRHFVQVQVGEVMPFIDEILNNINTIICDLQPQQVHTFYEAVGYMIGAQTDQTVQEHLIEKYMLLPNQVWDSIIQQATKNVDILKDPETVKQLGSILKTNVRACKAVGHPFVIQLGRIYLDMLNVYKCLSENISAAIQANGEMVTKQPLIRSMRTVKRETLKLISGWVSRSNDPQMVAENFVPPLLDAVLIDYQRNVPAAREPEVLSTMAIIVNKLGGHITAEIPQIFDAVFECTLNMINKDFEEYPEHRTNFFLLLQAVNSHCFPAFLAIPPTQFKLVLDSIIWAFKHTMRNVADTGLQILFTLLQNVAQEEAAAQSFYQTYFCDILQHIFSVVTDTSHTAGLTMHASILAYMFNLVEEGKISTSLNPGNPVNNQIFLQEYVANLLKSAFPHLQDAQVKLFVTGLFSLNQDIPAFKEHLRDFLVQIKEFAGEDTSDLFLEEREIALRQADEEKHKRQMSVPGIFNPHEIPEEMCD
Sequence of GSTP1 C48 (P09211) (P09211 whole entry): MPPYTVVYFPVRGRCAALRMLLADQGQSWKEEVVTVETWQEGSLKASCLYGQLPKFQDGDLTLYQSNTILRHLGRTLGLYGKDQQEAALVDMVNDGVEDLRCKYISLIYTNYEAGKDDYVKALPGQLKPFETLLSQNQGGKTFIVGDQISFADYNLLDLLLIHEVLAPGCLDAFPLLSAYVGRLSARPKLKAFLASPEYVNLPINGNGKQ

isoTOP-ABPP reactivity ratio, P63244_C182 (GNB2L1 C182 (P63244)): 1.3
isoTOP-ABPP reactivity ratio, P09211_C48 (GSTP1 C48 (P09211)): 1.6
isoTOP-ABPP reactivity ratio, O75874_C269 (IDH1 C269 (O75874)): 1.7
isoTOP-ABPP reactivity ratio, P48735_C308 (IDH2 C308 (P48735)): 1.3
isoTOP-ABPP reactivity ratio, Q99873_C109 (PRMT1 C109 (Q99873)): 1.0
isoTOP-ABPP reactivity ratio, O14980_C34 (XPO1 C34 (O14980)): 1.3
isoTOP-ABPP reactivity ratio, P24752_C119 (ACAT1 C119 (P24752)): 1.2
isoTOP-ABPP reactivity ratio, P24752_C196 (ACAT1 C196 (P24752)): 1.5
isoTOP-ABPP reactivity ratio, P24752_C413 (ACAT1 C413 (P24752)): 2.7
Compound: O=C(CCl)Nc1cc(C(=O)O)cc(C(F)(F)F)c1 [compound 36]

Reference: patent US10670605B2, “Cysteine reactive probes and uses thereof” (The Scripps Research Institute, priority 2015, dated 2020)
